Laboratory results reported in US9802894B2, “α-glucosidase inhibitors” (priority 2015, dated 2017).

Columns and labels:
[1] = biological target: α-Glucosidase from Saccharomyces cervisiae; assay type: biochemical; conditions: in vitro; phosphate buffer pH 6.8, 37° C., substrate 0.7 mM, absorbance at 400 nm; read-out: α-Glucosidase Inhibition (IC50 in μM)
Description: Assay Protocol for α-Glucosidase Inhibition (In Vitro α-Glucosidase Inhibition Assay)
α-Glucosidase inhibition assay was performed spectrophotometrically. α-Glucosidase from Saccharomyces cervisiae was dissolved in phosphate buffer (pH 6.8, 50 mM). Test compounds were dissolved in 70% DMSO. In 96-well plates, 20 μL of test sample, 20 μL of enzyme and 135 μL of buffer were added and incubated for 15 minutes at 37° C. After incubation, 25 μL, of p-nitrophenyl-α-D-glucopyranoside (0.7 mM, Sigma Aldrich) was added and the change in absorbance was monitored for 30 minutes at 400 nm. Test compound was replaced by DMSO (7.5% final) as control. Acarbose (Acarbose, Sigma Aldrich) was used as a standard inhibitor.

| SMILES | IC50 [1] [µM] | melting point [°C] |
| --- | --- | --- |
| O=C(C[C@@H](c1ccccc1)c1c[nH]c2ccccc12)c1ccccc1 [Compound 3a, (S)-3 (1H-Indol-3-yl)-1,3-diphenylpropan-1-one] | 43.3 ± 0.92 | – |
| O=C(C[C@@H](c1ccc(Cl)cc1)c1c[nH]c2ccccc12)c1ccc2ccccc2c1 [Compound 3b, (S)-3-(4-Chlorophenyl)-3-(1H-indol-3-yl)-1-(naphthalen-2-yl)propan-1-one] | 17.6 ± 0.98 | 237 to 241 |
| Cc1cc(C)c([C@H](CC(=O)c2ccccc2)c2c[nH]c3ccccc23)c(C)c1 [Compound 3c, (S)-3-(1H-Indol-3-yl)-3-mesityl-1-phenylpropan-1-one] | 25.2 ± 1.96 | 169 to 171 |
| Cc1ccc([C@H](CC(=O)c2ccccc2)c2c[nH]c3ccccc23)cc1 [Compound 3d, (S)-3-(1H-Indol-3-yl)-1-phenyl-3-(p-tolyl)propan-1-one] | 24 ± 4 | 153 to 155 |
| COc1ccc([C@H](CC(=O)c2ccccc2)c2c[nH]c3ccccc23)cc1 [Compound 3e, (S)-3-(1H-Indol-3-yl)-3-(4-methoxyphenyl)-1-phenylpropan-1-one] | 27.1 ± 0.69 | 134 to 136 |
| COc1ccc([C@H](CC(=O)c2ccc3ccccc3c2)c2c[nH]c3ccccc23)cc1 [Compound 3f, (S)-3-(1H-Indol-3-yl)-3-(4-methoxyphenyl)-1-(naphthalen-2-yl)propan-1-one] | 15.2 ± 0.58 | 159 to 162 |
| O=C(C[C@@H](c1ccccc1)c1c[nH]c2ccccc12)c1ccc2ccccc2c1 [Compound 3g, (S)-3-(1H-Indol-3-yl)-1-(naphthalen-2-yl)-3-phenylpropan-1-one] | 43.9 ± 0.51 | 166 to 169 |
| O=C(C[C@@H](c1ccc(Cl)cc1)c1c[nH]c2ccccc12)c1ccccc1 [Compound 3h, (S)-3-(4-Chlorophenyl)-3-(1H-indol-3-yl)-1-phenylpropan-1-one] | 37.9 ± 0.86 | 189 to 192 |
| Cc1cc(C)c([C@H](CC(=O)c2ccc3ccccc3c2)c2c[nH]c3ccccc23)c(C)c1 [Compound 3i, (S)-3-(1H-Indol-3-yl)-3-mesityl-1-(naphthalen-2-yl)propan-1-one] | 15.1 ± 0.4 | 227 to 229 |
| Cc1ccc([C@H](CC(=O)c2ccc3ccccc3c2)c2c[nH]c3ccccc23)cc1 [Compound 3j, (S)-3-(1H-Indol-3-yl)-1-(naphthalen-2-yl)-3-(p-tolyl)propan-1-one] | 18.1 ± 1.9 | 174 to 177 |
| O=C(C[C@@H](c1cccs1)c1c[nH]c2ccccc12)c1ccccc1 [Compound 3k, (R)-3-(1H-Indol-3-yl)-1-phenyl-3-(thiophen-2-yl)propan-1-one] | 21.8 ± 0.25 | 112 to 115 |
| O=C(CC(c1ccc(Cl)cc1Cl)c1c[nH]c2ccccc12)c1ccccc1 (stereo not shown) [Compound 3l, 3-(2,4-dichlorophenyl)-3-(1H-indol-3-yl)-1-phenylpropan-1-one] | 15.6 ± 0.17 | 110 to 112 |
| O=C(CC(c1c(Cl)cccc1Cl)c1c[nH]c2ccccc12)c1ccccc1 (stereo not shown) [Compound 3m, 3-(2,6-dichlorophenyl)-3-(1H-indol-3-yl)-1-phenylpropan-1-one] | 4.3 ± 0.13 | 119 to 121 |
| Cc1cccc(C(CC(=O)c2ccccc2)c2c[nH]c3ccccc23)c1 (stereo not shown) [Compound 3n, 3-(1H-indol-3-yl)-1-phenyl-3-(m-tolyl)propan-1-one] | 26.3 ± 0.48 | 130 to 132 |
| O=C(CC(c1cccs1)c1c[nH]c2ccccc12)c1ccc2ccccc2c1 (stereo not shown) [Compound 3o, 3-(1H-indol-3-yl)-1-(naphthalen-2-yl)-3-(thiophen-2-yl)propan-1-one] | 11.8 ± 0.06 | – |
| O=C(CC(c1cccc([N+](=O)[O-])c1)c1c[nH]c2ccccc12)c1ccccc1 (stereo not shown) [Compound 3p, 3-(1H-indol-3-yl)-3-(3-nitrophenyl)-1-phenylpropan-1-one] | 34.6 ± 1.55 | 105 to 107 |
| O=C(CC(c1ccc(Br)cc1)c1c[nH]c2ccccc12)c1ccccc1 (stereo not shown) [Compound 3q, 3-(4-bromophenyl)-3-(1H-indol-3-yl)-1-phenylpropan-1-one] | 24.9 ± 1.61 | 95 to 97 |
| O=C(CC(c1cccc(Br)c1)c1c[nH]c2ccccc12)c1ccccc1 (stereo not shown) [Compound 3r, 3-(3-bromophenyl)-3-(1H-indol-3-yl)-1-phenylpropan-1-one] | 33.2 ± 0.75 | 102 to 104 |
